The record followed here is patent publication US9790188B2, “Benzimidazole derivatives and uses thereof” (Whitehead Institute for Biomedical Research, priority 2013, dated 2017).

For the assay, the system named is aSyn^A53T iPS neurons. In words: Nitrosative stress (NO sensor FL2) in patient iPS neurons. The settings on record: human cortical neurons from iPSCs of a patient carrying α-syn mutations.

Description: Nitrosative stress was monitored by protein nitration levels using the 3-NT antibody. […] All data represented as mean±SEM (*: p<0.05; **: p<0.01, two tail t-test compared to control condition).

Turning to `Cc1cccc(-n2cnc3cc(C(=O)NCc4ccccc4Cl)ccc32)c1` [ABI, N-(2-chlorobenzyl)-1-(m-tolyl)-1H-benzo[d]imidazole-5-carboxamide], the nitrosative stress result is listed as “reduced nitrosative stress”.
